In experiment [1] the target is NACHT, LRR and PYD domains-containing protein 3 (Mus musculus) (UniProt Q8R4B8). In words: Inhibition of NLRP3 inflammasome activation in LPS/ATP-induced C57BL/6 mouse BMDMs assessed as reduction in IL-1beta secretion at 100 nM preincubated with LPS for 4 hrs followed by compound addition for 30 mins and further stimulated with ATP for 30 mins by ELISA relative to control. The experiment is classed as cell-based. The settings on record: BMDM, time 1.0 hrs.

Experiment [2] has the same target. As to the kind of experiment: Inhibition of NLRP3 inflammasome activation in LPS/ATP-induced C57BL/6 mouse BMDMs assessed as reduction in IL-1beta secretion at 200 nM preincubated with LPS for 4 hrs followed by compound addition for 30 mins and further stimulated with ATP for 30 mins by ELISA relative to control. The experiment is classed as cell-based. The settings on record: BMDM, time 1.0 hrs. For orientation: An ELISA detects its analyte on a solid surface through an enzyme-linked reagent.

Experiment [3] concerns the target NACHT, LRR and PYD domains-containing protein 3 (Mus musculus, UniProt Q8R4B8). In words: Inhibition of NLRP3 inflammasome activation in LPS/ATP-induced C57BL/6 mouse BMDMs assessed as reduction in IL-1beta secretion preincubated with LPS for 4 hrs followed by compound addition for 30 mins and further stimulated with ATP for 30 mins by ELISA. It counts as cell-based, BMDM.

The target in experiment [4] is NACHT, LRR and PYD domains-containing protein 3 (Mus musculus) (UniProt Q8R4B8). In words: Inhibition of NLRP3 inflammasome activation in LPS/ATP-induced C57BL/6 mouse BMDMs assessed as reduction in IL-1beta secretion at 500 nM preincubated with LPS for 4 hrs followed by compound addition for 30 mins and further stimulated with ATP for 30 mins by ELISA relative to control. It counts as cell-based. The settings on record: BMDM, time 1.0 hrs.

In general, inhibition refers to the relative decrease from the control value, in per cent. For orientation: IC50 means the midpoint of a concentration-inhibition curve.

Chain of NACHT, LRR and PYD domains-containing protein 3 (Mus musculus) (Q8R4B8 whole entry, the tested form may be a part): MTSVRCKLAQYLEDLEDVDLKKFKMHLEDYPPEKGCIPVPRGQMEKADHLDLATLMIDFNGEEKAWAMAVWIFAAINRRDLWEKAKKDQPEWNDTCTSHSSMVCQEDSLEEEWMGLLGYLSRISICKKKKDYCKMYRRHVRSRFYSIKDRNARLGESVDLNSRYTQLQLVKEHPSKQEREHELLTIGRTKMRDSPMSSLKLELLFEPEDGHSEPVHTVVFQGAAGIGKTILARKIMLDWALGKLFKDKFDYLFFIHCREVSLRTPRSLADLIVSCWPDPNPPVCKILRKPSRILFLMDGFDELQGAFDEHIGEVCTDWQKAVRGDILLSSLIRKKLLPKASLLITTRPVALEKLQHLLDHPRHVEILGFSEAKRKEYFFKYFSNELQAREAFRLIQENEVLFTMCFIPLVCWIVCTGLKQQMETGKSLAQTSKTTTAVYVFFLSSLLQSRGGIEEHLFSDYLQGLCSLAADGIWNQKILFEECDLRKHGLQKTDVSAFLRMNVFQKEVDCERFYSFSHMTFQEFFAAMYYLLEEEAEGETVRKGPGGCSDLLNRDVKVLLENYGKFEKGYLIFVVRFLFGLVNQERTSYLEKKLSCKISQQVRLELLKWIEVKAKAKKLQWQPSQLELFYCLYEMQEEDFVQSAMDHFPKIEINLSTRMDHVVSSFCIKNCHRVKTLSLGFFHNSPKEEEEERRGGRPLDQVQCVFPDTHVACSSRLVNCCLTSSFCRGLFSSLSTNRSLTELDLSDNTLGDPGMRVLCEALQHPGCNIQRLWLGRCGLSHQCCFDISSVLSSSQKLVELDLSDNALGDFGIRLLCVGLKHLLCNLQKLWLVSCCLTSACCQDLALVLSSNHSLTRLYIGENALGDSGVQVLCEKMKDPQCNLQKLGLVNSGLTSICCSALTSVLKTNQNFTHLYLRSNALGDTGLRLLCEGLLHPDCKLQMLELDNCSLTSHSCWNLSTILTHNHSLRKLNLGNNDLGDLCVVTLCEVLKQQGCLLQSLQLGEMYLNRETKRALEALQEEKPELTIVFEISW
Chain of NACHT, LRR and PYD domains-containing protein 3 (Q8R4B8 whole entry, the tested form may be a part): as above

`C=C1C(=O)[C@]23[C@H](O)[C@H]1CC[C@H]2[C@]12C=CCC(C)(C)[C@H]1[C@H](O)[C@@]3(OCCC(=O)NC(C)C)OC2`: the inhibition amounted to 56.2% in experiment [1], 63.6% in experiment [2] and 84.8% in experiment [4]. For the same molecule, the IC50 in experiment [3] was found to be 0.0906 µM.

With `C=C1C(=O)[C@]23[C@H](O)[C@H]1CC[C@H]2[C@]12C=CCC(C)(C)[C@H]1[C@H](O)[C@@]3(OCCCC(=O)O)OC2`, the values for the inhibition in experiment [1], in experiment [2] and in experiment [4] were 57.1%, 68.7% and 83%, respectively. Moreover, the IC50 in experiment [3] was 0.0817 µM.

As for `C=C1C(=O)[C@]23[C@H](OCc4ccc(Cl)cc4)[C@H]1CC[C@H]2[C@]12C=CCC(C)(C)[C@H]1[C@H](O)[C@@]3(O)OC2`, the inhibition in experiment [1] was determined as 44.8%; in experiment [2], 58.7%; in experiment [4], 72.4%.

Turning to `C=C1C(=O)[C@]23[C@H](O)[C@H]1CC[C@H]2[C@]12C=CCC(C)(C)[C@H]1[C@H](O)[C@@]3(OCCC(=O)N(C)C)OC2`, the inhibition stood at 56.7% in experiment [1], 78.2% in experiment [2] and 89% in experiment [4]. Besides, in experiment [3], the IC50 turned out to be 0.103 µM.

Take `C=C1C(=O)[C@]23[C@H](O)[C@H]1CC[C@H]2[C@]12C=CCC(C)(C)[C@H]1[C@H](O)[C@@]3(OCCC(=O)N1CCCCC1)OC2`: the inhibition was 43.7% in experiment [1], 52.4% in experiment [2] and 82.1% in experiment [4]. The IC50 in experiment [3] was 0.147 µM.

For `C=C1C(=O)[C@]23[C@H](O)[C@H]1CC[C@H]2[C@]12C=CCC(C)(C)[C@H]1[C@H](O)[C@@]3(OCc1ccccc1)OC2`, the inhibition in experiment [1] amounted to 42.5%; in experiment [2], 70.1%; in experiment [4], 88.1%.

As to `C=C1C(=O)[C@]23[C@H](OCc4ccc5ccccc5c4)[C@H]1CC[C@H]2[C@]12C=CCC(C)(C)[C@H]1[C@H](O)[C@@]3(O)OC2`, the inhibition in experiment [1] turned out to be 33.1%; in experiment [2] it was 50.2%; in experiment [4], 71.4%.

Regarding `C=C1C(=O)[C@]23[C@H](O)[C@H]1CC[C@H]2[C@]12C=CCC(C)(C)[C@H]1[C@H](O)[C@@]3(OCc1cnco1)OC2`, the inhibition in experiment [1] was 50.6%; in experiment [2] it was 83%; in experiment [4], 89.5%. Further, the IC50 in experiment [3] was found to be 0.0993 µM.

`C=C1C(=O)[C@]23[C@H](O)[C@H]1CC[C@H]2[C@]12C=CCC(C)(C)[C@H]1[C@H](O)[C@@]3(OCc1nc(-c3ccccc3)cs1)OC2`: the inhibition in experiment [1] was determined as 60.9%; in experiment [2] it was 79.6%; in experiment [4] it was 93.9%. For the same molecule, the IC50 in experiment [3] is 0.0805 µM.

Take `C=C1C(=O)[C@]23[C@H](O)[C@H]1CC[C@H]2[C@]12C=CCC(C)(C)[C@H]1[C@H](O)[C@@]3(OCCC(=O)NC1CCOCC1)OC2`: the results for the inhibition in experiment [1], in experiment [2] and in experiment [4] were 18.5%, 36.4% and 66.2%, respectively. The IC50 in experiment [3] was determined as 0.292 µM.

Turning to `C=C1C(=O)[C@]23[C@H](O)[C@H]1CC[C@H]2[C@]12C=CCC(C)(C)[C@H]1[C@H](O)[C@@]3(OCCCc1ccc(Cl)cc1)OC2`, the inhibition was 7.3% in experiment [1], 47.8% in experiment [2] and 65% in experiment [4].

With `C=C1C(=O)[C@]23[C@H](OCc4ccc(C#N)cc4)[C@H]1CC[C@H]2[C@]12C=CCC(C)(C)[C@H]1[C@H](O)[C@@]3(O)OC2`, the inhibition in experiment [1] worked out at 31.1%; in experiment [2], 69.6%; in experiment [4] it was 86.6%.

Turning to `C=C1C(=O)[C@]23[C@H](O)[C@H]1CC[C@H]2[C@]12C=CCC(C)(C)[C@H]1[C@H](O)[C@@]3(OCCCc1ccccc1)OC2`, the inhibition in experiment [1] came out at 24%; in experiment [2], 48.4%; in experiment [4], 66.6%.

On to `C=C1C(=O)[C@]23[C@H](O)[C@H]1CC[C@H]2[C@]12C=CCC(C)(C)[C@H]1[C@H](O)[C@@]3(OCc1cocn1)OC2`, for which the inhibition amounted to 44.2% in experiment [1], 78.8% in experiment [2] and 96.5% in experiment [4]. Also, in experiment [3], the IC50 was found to be 0.0971 µM.

Take `C=C1C(=O)[C@]23[C@H](O)[C@H]1CC[C@H]2[C@]12C=CCC(C)(C)[C@H]1[C@H](O)[C@@]3(OCCC(=O)NC1CC1)OC2`: the inhibition was 33.3% in experiment [1], 38% in experiment [2] and 65.1% in experiment [4]. Moreover, in experiment [3], the IC50 came to 0.242 µM.

In the case of `C=C1C(=O)[C@]23[C@H](O)[C@H]1CC[C@H]2[C@]12C=CCC(C)(C)[C@H]1[C@H](O)[C@@]3(OCc1ccc(Cl)cc1)OC2`, the inhibition was found to be 40.5% in experiment [1], 63.3% in experiment [2] and 75.5% in experiment [4].

On to `C=C1C(=O)[C@]23[C@H](O)[C@H]1CC[C@H]2[C@]12C=CCC(C)(C)[C@H]1[C@H](O)[C@@]3(OCCC(=O)N1CCN(C)CC1)OC2`, for which the results for the inhibition in experiment [1], in experiment [2] and in experiment [4] were 45%, 60.3% and 85.3%, respectively. Besides, the IC50 in experiment [3] was 0.0985 µM.

In the case of `C=C1C(=O)[C@]23[C@H](O)[C@H]1CC[C@H]2[C@]12C=CCC(C)(C)[C@H]1[C@H](O)[C@@]3(OCCC(=O)N1CCCC1)OC2`, the inhibition in experiment [1] stood at 36.4%; in experiment [2] it was 55.9%; in experiment [4], 79.1%. Moreover, the IC50 in experiment [3] was found to be 0.161 µM.

Consider `C=C1C(=O)[C@]23[C@H](OCc4ccccc4)[C@H]1CC[C@H]2[C@]12C=CCC(C)(C)[C@H]1[C@H](O)[C@@]3(O)OC2`, for which the inhibition in experiment [1] came out at 45.1%; in experiment [2], 68%; in experiment [4], 85.5%.

For `C=C1C(=O)[C@]23[C@H](O)[C@H]1CC[C@H]2[C@]12C=CCC(C)(C)[C@H]1[C@H](O)[C@@]3(OCc1ccc(C#N)cc1)OC2`, the inhibition in experiment [1] was 38.8%; in experiment [2], 64.7%; in experiment [4], 89.2%.

In the case of `C=CCNC(=O)CCO[C@@]12OC[C@]3(C=CCC(C)(C)[C@H]3[C@@H]1O)[C@@H]1CC[C@H]3C(=C)C(=O)[C@]12[C@@H]3O`, the figures for the inhibition in experiment [1], in experiment [2] and in experiment [4] were 52.6%, 62.1% and 93.7%, respectively. In addition, the IC50 in experiment [3] worked out at 0.102 µM.

For `C=C1C(=O)[C@]23[C@H](O)[C@H]1CC[C@H]2[C@]12C=CCC(C)(C)[C@H]1[C@H](O)[C@@]3(OCc1ccncc1)OC2`, the inhibition in experiment [1] turned out to be 47.3%; in experiment [2], 56%; in experiment [4], 77.3%. Further, the IC50 in experiment [3] was determined as 0.1 µM.

On to `C=C1C(=O)[C@]23[C@H](O)[C@H]1CC[C@H]2[C@]12C=CCC(C)(C)[C@H]1[C@H](O)[C@@]3(OCc1ccc3ccccc3c1)OC2`, for which the figures for the inhibition in experiment [1], in experiment [2] and in experiment [4] were 35.2%, 47.5% and 85.7%, respectively.

As for `C=C1C(=O)[C@]23[C@H](O)[C@H]1CC[C@H]2[C@]12C=CCC(C)(C)[C@H]1[C@H](O)[C@@]3(O)OC2`, the inhibition in experiment [1] was 30.3%; in experiment [2], 45.3%; in experiment [4], 64.3%.

Consider `C=C1C(=O)[C@]23[C@H](O)[C@H]1CC[C@H]2[C@]12C=CCC(C)(C)[C@H]1[C@H](O)[C@@]3(OCCCCCc1ccccc1)OC2`, for which the inhibition in experiment [1] amounted to 13.3%; in experiment [2] it was 44.6%; in experiment [4], 63.1%.

In the case of `C=C1C(=O)[C@]23[C@H](O)[C@H]1CC[C@H]2[C@]12C=CCC(C)(C)[C@H]1[C@H](O)[C@@]3(OCC)OC2`, the inhibition in experiment [1] came out at 31.3%; in experiment [2], 46.5%; in experiment [4], 66.1%.
